Assay: cn = amount concentration of the nth substance listed, in mol/dm3
Conditions: 101 kPa, Liquid, Dip Cell

CCCCCCCCCCCCCCCC[N+](C)(C)CCCCCC[N+](C)(C)CCCCCCCCCCCCCCCC.[Br-].[Br-] + O
electrical conductivity [S/m]
Conditions	298 K	303 K	308 K	313 K
c1 = 3.3e-06	7.1e-08	7.2e-08	7.3e-08	7.5e-08
c1 = 6.6e-06	1.31e-07	1.53e-07	1.22e-07	1.33e-07
c1 = 9.9e-06	2.04e-07	2.14e-07	2.09e-07	1.92e-07
c1 = 1.32e-05	2.59e-07	2.69e-07	2.84e-07	2.42e-07
c1 = 1.64e-05	3.27e-07	3.46e-07	3.66e-07	3.21e-07
c1 = 1.96e-05	3.99e-07	4.09e-07	4.21e-07	3.95e-07
c1 = 2.28e-05	4.86e-07	5.06e-07	5.18e-07	4.69e-07
c1 = 2.6e-05	5.26e-07	5.46e-07	5.67e-07	5.41e-07
c1 = 2.91e-05	6.16e-07	6.36e-07	6.57e-07	6.23e-07
c1 = 3.23e-05	6.92e-07	7.02e-07	7.22e-07	6.81e-07
c1 = 3.54e-05	7.86e-07	8.06e-07	8.22e-07	7.7e-07
c1 = 3.85e-05	8.34e-07	8.54e-07	8.91e-07	8.38e-07
c1 = 4.15e-05	9.29e-07	9.49e-07	9.65e-07	9.01e-07
c1 = 4.46e-05	9.65e-07	9.95e-07	1.042e-06	9.69e-07
c1 = 4.76e-05	1.031e-06	1.031e-06	1.071e-06	1.041e-06
c1 = 5.06e-05	1.084e-06	1.084e-06	1.113e-06	1.113e-06
c1 = 5.36e-05	1.145e-06	1.145e-06	1.17e-06	1.18e-06
c1 = 5.66e-05	1.186e-06	1.206e-06	1.226e-06	1.246e-06
c1 = 5.96e-05	1.209e-06	1.249e-06	1.269e-06	1.299e-06
c1 = 6.25e-05	1.272e-06	1.292e-06	1.312e-06	1.352e-06
c1 = 6.54e-05	1.326e-06	1.356e-06	1.376e-06	1.396e-06
c1 = 6.83e-05	1.359e-06	1.379e-06	1.399e-06	1.447e-06
c1 = 7.12e-05	1.396e-06	1.416e-06	1.456e-06	1.486e-06
c1 = 7.41e-05	1.437e-06	1.457e-06	1.477e-06	1.541e-06
c1 = 7.69e-05	1.462e-06	1.482e-06	1.512e-06	1.59e-06

Cc1ccc(S(=O)(=O)[O-])cc1.[Na+] [sodium p-toluenesulfonate] + O
electrical conductivity [S/m]
Conditions	298 K	303 K	308 K	313 K
c1 = 1.98e-05	1.97e-05	1.898e-05	2.03e-05	2.26e-05
c1 = 3.92e-05	3.417e-05	3.49e-05	3.87e-05	4.25e-05
c1 = 5.83e-05	4.83e-05	5.03e-05	5.5e-05	6.1e-05
c1 = 7.69e-05	6.1e-05	6.43e-05	7.18e-05	7.97e-05
c1 = 9.52e-05	7.34e-05	7.77e-05	8.74e-05	9.66e-05
c1 = 0.0001132	8.47e-05	9.1e-05	0.000101	0.000113
c1 = 0.0001308	9.61e-05	0.000104	0.000115	0.000128
c1 = 0.0001481	0.000107	0.000117	0.000127	0.000142
c1 = 0.0001651	0.000117	0.000129	0.00014	0.000156
c1 = 0.0001818	0.000127	0.000139	0.000152	0.000169
c1 = 0.0001982	0.000137	0.000149	0.000164	0.000181
c1 = 0.0002143	0.000147	0.000161	0.000175	0.000194
c1 = 0.0002456	0.000164	0.000179	0.000196	0.000203
c1 = 0.0002609	0.00017	0.000188	0.000192	0.000214
c1 = 0.0002759	0.00018	0.000196	0.000201	0.000224
c1 = 0.0002906	0.0001884	0.000192	0.000209	0.000234
c1 = 0.0003051	0.0001964	0.0002	0.000219	0.000242
c1 = 0.0003193	0.000203	0.000208	0.000228	0.000253
c1 = 0.0003333	0.000196	0.000215	0.000236	0.00026
c1 = 0.0003471	0.000201	0.000222	0.000243	0.000269
c1 = 0.0003673	0.000206	0.000232	0.000254	0.000281
c1 = 0.0003871	0.000219	0.000241	0.000267	0.000293
c1 = 0.0004064	0.000228	0.000251	0.000276	0.000305
c1 = 0.0004252	0.000236	0.000259	0.000286	0.000315
c1 = 0.0004436	0.000242	0.000267	0.000295	0.000326
c1 = 0.0004615	0.000249	0.000274	0.000304	0.000336
c1 = 0.0004791	0.000258	0.000283	0.000313	0.000342
c1 = 0.0004962	0.000265	0.000293	0.000321	0.00035
c1 = 0.000513	0.000271	0.0003	0.00033	0.000359
